Reference: patent US8268840B2, “Pyrimidinyl pyridone inhibitors of kinases” (Roche Palo Alto LLC, priority 2008, dated 2012)

Q: With `CC(=O)N[C@H]1CC[C@H](Nc2ncc3c(N)cc(=O)n(CCCO)c3n2)CC1` [Compound I-42, N-{4-[5-Amino-8-(3-hydroxy-propyl)-7-oxo-7,8-dihydro-pyrido[2,3-d]pyrimidin-2-ylamino]-cyclohexyl}-acetamide] as the compound, how does the melting point read?
A: > 300 °C

Q: With `COC(=O)N[C@H]1CC[C@H](Nc2ncc3c(N)cc(=O)n(CCCO)c3n2)CC1` [Compound I-43, {4-[5-Amino-8-(3-hydroxy-propyl)-7-oxo-7,8-dihydro-pyrido[2,3-d]pyrimidin-2-ylamino]-cyclohexyl}-carbamic acid methyl ester] as the compound, how does the melting point read?
A: 190 to 191 °C

Q: With `Cc1c(N)c2cnc(NC3CCCCC3)nc2n([C@@H]2CCOC2)c1=O` [Compound I-44, 5-Amino-2-cyclohexylamino-6-methyl-8-(R)-tetrahydro-furan-3-yl-8H-pyrido[2,3-d]pyrimidin-7-one] as the compound, how does the melting point read?
A: 225 to 226 °C

Q: Which melting point does the source give for `Nc1cc(=O)n(C2CCCC2)c2nc(Nc3ccccc3)ncc12` [Compound I-45, 5-Amino-8-cyclopentyl-2-phenylamino-8H-pyrido[2,3-d]pyrimidin-7-one] here?
A: 128.3 to 130 °C

Q: Which melting point does the source give for `Nc1cc(=O)n(CC2CC2)c2nc(NC3CCOCC3)ncc12` [Compound I-46, 5-Amino-8-cyclopropylmethyl-2-(tetrahydro-pyran-4-ylamino)-8H-pyrido[2,3-d]pyrimidin-7-one] here?
A: 135 to 137.4 °C

Q: Which melting point does the source give for `Cc1c(N)c2cnc(N[C@H]3CC[C@H](C(=O)N4CCC(O)CC4)CC3)nc2n([C@@H]2CCOC2)c1=O` [Compound I-47, 5-Amino-2-[4-(4-hydroxy-piperidine-1-carbonyl)-cyclohexylamino]-6-methyl-8-(R)-tetrahydro-furan-3-yl-8H-pyrido[2,3-d]pyrimidin-7-one] here?
A: 173 to 174 °C

Q: With `CC(C)c1c(N)c2cnc(NC3CCCCC3)nc2n(C2CCC2)c1=O` [Compound I-49, 5-Amino-8-cyclobutyl-2-cyclohexylamino-6-isopropyl-8H-pyrido[2,3-d]pyrimidin-7-one] as the compound, how does the melting point read?
A: 277.5 to 278 °C

Q: Which melting point does the source give for `CCn1c(=O)cc(N)c2cnc(NC3CCOCC3)nc21` [Compound I-50, 5-Amino-8-ethyl-2-(tetrahydro-pyran-4-ylamino)-8H-pyrido[2,3-d]pyrimidin-7-one] here?
A: 235 to 238.2 °C

Q: Which melting point does the source give for `Nc1cc(=O)n(C2CCCCC2)c2nc(NC3CCOCC3)ncc12` [Compound I-51, 5-Amino-8-cyclohexyl-2-(tetrahydro-pyran-4-ylamino)-8H-pyrido[2,3-d]pyrimidin-7-one] here?
A: 160 to 164 °C

Q: Which melting point does the source give for `Cc1c(N)c2cnc(NC3CCN(S(C)(=O)=O)CC3)nc2n([C@@H]2CCOC2)c1=O` [Compound I-53, 5-Amino-2-(1-methanesulfonyl-piperidin-4-ylamino)-6-methyl-8-(R)-tetrahydro-furan-3-yl-8H-pyrido[2,3-d]pyrimidin-7-one] here?
A: > 300 °C

Q: For `Nc1cc(=O)n(C2CC2)c2nc(NC3CCOCC3)ncc12` [Compound I-54, 5-Amino-8-cyclopropyl-2-(tetrahydro-pyran-4-ylamino)-8H-pyrido[2,3-d]pyrimidin-7-one], which melting point is on record?
A: 264.4 to 266.8 °C

Q: Which melting point does the source give for `Nc1cc(=O)n(CC2CC2)c2nc(NC3CCC3)ncc12` [Compound I-55, 5-Amino-2-cyclobutylamino-8-cyclopropylmethyl-8H-pyrido[2,3-d]pyrimidin-7-one] here?
A: 236.1 to 239.1 °C

Q: For `CCOC(=O)N1CCC(Nc2ncc3c(N)c(C)c(=O)n(C4CCC4)c3n2)CC1` [Compound I-56, 4-(5-Amino-8-cyclobutyl-6-methyl-7-oxo-7,8-dihydro-pyrido[2,3-d]pyrimidin-2-ylamino)-piperidine-1-carboxylic acid ethyl ester], which melting point is on record?
A: 201.3 to 202.6 °C

Q: For `Nc1cc(=O)n(C2CCCCC2)c2nc(NC3CCC(F)(F)CC3)ncc12` [Compound I-57, 5-Amino-8-cyclohexyl-2-(4,4-difluoro-cyclohexylamino)-8H-pyrido[2,3-d]pyrimidin-7-one], which melting point is on record?
A: 240 to 244.1 °C

Q: Which melting point does the source give for `CC(=O)N1CCC(Nc2ncc3c(N)c(C)c(=O)n(C4CCCC4)c3n2)CC1` [Compound I-59, 2-(1-Acetyl-piperidin-4-ylamino)-5-amino-8-cyclopentyl-6-methyl-8H-pyrido[2,3-d]pyrimidin-7-one] here?
A: 281 to 283 °C

Q: With `Cc1ccccc1Nc1ncc2c(N)c(C)c(=O)n(C3CCC3)c2n1` [Compound I-62, 5-Amino-8-cyclobutyl-6-methyl-2-o-tolylamino-8H-pyrido[2,3-d]pyrimidin-7-one] as the compound, how does the melting point read?
A: 186 to 187 °C

Q: For `Nc1cc(=O)n(Cc2ccccc2)c2nc(NC3CCCCC3)ncc12` [Compound I-66, 5-Amino-8-benzyl-2-cyclohexylamino-8H-pyrido[2,3-d]pyrimidin-7-one], which melting point is on record?
A: 221.9 to 223.8 °C

Q: For `CC(=O)c1c(N)c2cnc(NC3CCCCC3)nc2n(C2CCC2)c1=O` [Compound I-68, 6-Acetyl-5-amino-8-cyclobutyl-2-cyclohexylamino-8H-pyrido[2,3-d]pyrimidin-7-one], which melting point is on record?
A: 256 to 257 °C

Q: With `Nc1cc(=O)n(Cc2ccccc2)c2nc(NC3CCOCC3)ncc12` [Compound I-69, 5-Amino-8-benzyl-2-(tetrahydro-pyran-4-ylamino)-8H-pyrido[2,3-d]pyrimidin-7-one] as the compound, how does the melting point read?
A: 245.6 to 246.8 °C

Q: Which melting point does the source give for `Cc1cccc(C)c1Nc1ncc2c(N)c(C)c(=O)n(C3CCC3)c2n1` [Compound I-70, 5-Amino-8-cyclobutyl-2-(2,6-dimethyl-phenylamino)-6-methyl-8H-pyrido[2,3-d]pyrimidin-7-one] here?
A: 213 to 214 °C
